Assay results published in US20060223879A1, “Non-steroidal farnesoid x receptor modulators” (priority 2002, published 2006).
pEC50: −log10 of the molar value.

Columns and labels:
FXR = target: T1, FXR (Homo sapiens, UniProt Q96RI1); experiment: cell-based transcription assay, FXR responsive promoter linked to a luciferase reporter; set-up: RE: scale not given here
T1 construct: using a full length FXR on a natural response element; expressed in transfected cells
T1 sequence (Q96RI1 1-486): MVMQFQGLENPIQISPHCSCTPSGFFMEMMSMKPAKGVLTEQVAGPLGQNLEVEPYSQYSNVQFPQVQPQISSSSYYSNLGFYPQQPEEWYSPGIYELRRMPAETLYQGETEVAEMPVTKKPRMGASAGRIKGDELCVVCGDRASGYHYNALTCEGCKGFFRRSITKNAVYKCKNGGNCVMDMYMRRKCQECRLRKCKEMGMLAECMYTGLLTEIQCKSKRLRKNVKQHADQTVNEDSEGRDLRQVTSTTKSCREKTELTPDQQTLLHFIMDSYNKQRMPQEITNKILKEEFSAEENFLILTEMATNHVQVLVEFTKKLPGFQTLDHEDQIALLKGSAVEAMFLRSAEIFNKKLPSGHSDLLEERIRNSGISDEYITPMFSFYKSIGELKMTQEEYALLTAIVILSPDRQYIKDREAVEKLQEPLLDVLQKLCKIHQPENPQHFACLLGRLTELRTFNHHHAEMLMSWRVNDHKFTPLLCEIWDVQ
Method in brief: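 Cells co-transfected with full-length FXR and a luciferase reporter carrying a natural hormone response element on a minimal promoter.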

SXR = target: T2, SXR (Homo sapiens, UniProt O75469); experiment: screen against a panel of nuclear receptors: SXR activation; assay type: cell-based; settings: nuclear receptor panel
T2 sequence (O75469 1-434): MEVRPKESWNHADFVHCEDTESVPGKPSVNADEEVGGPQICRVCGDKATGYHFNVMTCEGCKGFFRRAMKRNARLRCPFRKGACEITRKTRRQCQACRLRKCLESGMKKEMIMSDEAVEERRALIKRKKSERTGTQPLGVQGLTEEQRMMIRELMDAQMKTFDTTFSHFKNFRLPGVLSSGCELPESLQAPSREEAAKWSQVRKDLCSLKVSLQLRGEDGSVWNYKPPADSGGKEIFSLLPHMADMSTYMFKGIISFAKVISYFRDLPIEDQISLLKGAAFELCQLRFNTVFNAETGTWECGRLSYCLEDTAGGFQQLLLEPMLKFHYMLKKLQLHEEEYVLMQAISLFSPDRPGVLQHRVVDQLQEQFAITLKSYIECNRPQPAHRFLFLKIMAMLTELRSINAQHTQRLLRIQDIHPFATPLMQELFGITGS

- pEC50 (FXR; FXR activation, cell-based reporter assay, read-out: EC50): 6.73
- RE (FXR; Tables 1-15, RE not defined in the source): 0.50
- SXR activation (in words) (SXR): potently activated SXR
Structure (SMILES): COC(=O)/C=C/c1cccc(N(Cc2ccc3c(c2OC)OC(C)(C)C2C3C2(Cl)Cl)C(=O)C2CCCCC2)c1 (stereo not drawn) [Compound 149]
